Results from patent US9545386B2, “Methods of treating infectious diseases” (SLIPPERY ROCK UNIVERSITY FOUNDATION, INC., priority 2007, dated 2017).

How the values were obtained:
Assay in all cases: In vitro bioassay of infective larvae, immobilization and lethal doses (eosin, Probit)
Type in all cases: cell-based
[1] = system: Haemonchus contortus infective larvae; conditions: for 24 hr ID50 ± 95% confidence intervals / 48 hr ID50 ± 95% confidence intervals: immobilize 50%; for 24 hr ID50 ± 95% confidence intervals / 24 hr ID90 ± 95% confidence intervals / 24 hr LD50 ± 95% confidence intervals / 24 hr LD90 ± 95% confidence intervals: 24 hr in vitro; for 48 hr ID50 ± 95% confidence intervals / 48 hr ID90 ± 95% confidence intervals / 48 hr LD50 ± 95% confidence intervals / 48 hr LD90 ± 95% confidence intervals: 48 hr in vitro; for 24 hr ID90 ± 95% confidence intervals / 48 hr ID90 ± 95% confidence intervals: immobilize 90%; for 24 hr LD50 ± 95% confidence intervals / 48 hr LD50 ± 95% confidence intervals: kill 50%; for 24 hr LD90 ± 95% confidence intervals / 48 hr LD90 ± 95% confidence intervals: kill 90%
Method: (§1) Strongyloides stercoralis infective larvae were harvested from charcoal coprocultures in nematode saline solution. The larvae were supplied by the Parasitology Laboratory, Department of Pathobiology, University of Pennsylvania. The strain of larvae was a human strain of the parasitic nematode that had been maintained for over ten years in canines by daily prednisolone treatment (2 mg/kg per os, once daily. Parastrongyloides trichosuri and Ancylostoma caninum infective larvae were also supplied by the same source as for S. stercoralis. Haemonchus contortus infective larvae were harvested from charcoal coprocultures in nematode saline solution prepared from infected sheep feces obtained from Merck Parasites Laboratory.
(§2) The 24 hr 50% and 90% immobilization doses (ID50 and ID90), and 50% and 90% lethal doses (LD50 and LD90) of eryngial (mg/ml) were investigated in vitro using infective larvae of all four parasitic nematodes. Each species was exposed to a range of eryngial dilutions by adding known volumes of a homogeneous ‘wormy’ solution (infective larvae in nematode saline solution) to known volumes of an eryngial stock suspension (10 mg/ml of nematode saline solution). Each dilution, including the control (0 mg/ml eryngial), was prepared in triplicate and also contained eosin (0.01%, w/v), which was used as an indicator of mortality, and Triton X-100 (1.0%, v/v).
(§3) Using S. stercoralis, P. trichosuri, H. contortus and A. caninum infective larvae, eryngial dilutions, excluding the controls, ranged from 0.05 to 1.15 mg/ml; 0.01 to 1.0 mg/ml; 0.5 to 2.0 mg/ml; and 0.8 to 3.0 mg/ml, respectively. Sub-sample (10 μl) counts of larvae that were mobile, immobile but not stained and stained, were done at the start of each bioassay and at 24 hr intervals for two days. Each sub-sample contained approximately 50 infective larvae.
(§4) The 48-hr immobilization doses (ID50 and ID90) and lethal doses (LD50 and LD90) of eryngial and ivermectin also were investigated, using S. stercoralis and H. contortus infective larvae. Each bioassay was conducted as described hereinabove. Using S. stercoralis and H. contortus infective larvae, ivermectin dilutions (not including the controls) ranged from 0.03 to 0.3 mg/ml and from 0.009 to 0.1 mg/ml, respectively.
(§5) Probit analysis was used to determine 24 hr and 48 hr immobilization and lethal doses for eryngial and ivermectin, respectively.

[2] = system: Strongyloides stercoralis infective larvae; conditions: for 24 hr ID50 ± 95% confidence intervals / 48 hr ID50 ± 95% confidence intervals: immobilize 50%; for 24 hr ID50 ± 95% confidence intervals / 24 hr ID90 ± 95% confidence intervals / 24 hr LD50 ± 95% confidence intervals / 24 hr LD90 ± 95% confidence intervals: 24 hr in vitro; for 48 hr ID50 ± 95% confidence intervals / 48 hr ID90 ± 95% confidence intervals / 48 hr LD50 ± 95% confidence intervals / 48 hr LD90 ± 95% confidence intervals: 48 hr in vitro; for 24 hr ID90 ± 95% confidence intervals / 48 hr ID90 ± 95% confidence intervals: immobilize 90%; for 24 hr LD50 ± 95% confidence intervals / 48 hr LD50 ± 95% confidence intervals: kill 50%; for 24 hr LD90 ± 95% confidence intervals / 48 hr LD90 ± 95% confidence intervals: kill 90%
Method: as §1, §2, §3, §4, §5

[3] = system: Ancylostoma caninum infective larvae; conditions: for 24 hr ID50 ± 95% confidence intervals: immobilize 50%; for 24 hr ID90 ± 95% confidence intervals: immobilize 90%
Method: as §1, §2, §3, §5

[4] = system: Parastrongyloides trichosuri infective larvae; conditions: for 24 hr ID50 ± 95% confidence intervals / 24 hr ID90 ± 95% confidence intervals / 24 hr LD50 ± 95% confidence intervals / 24 hr LD90 ± 95% confidence intervals: P. trichosuri infective larvae, 24 hr in vitro; for 24 hr ID50 ± 95% confidence intervals: immobilize 50%; for 24 hr ID90 ± 95% confidence intervals: immobilize 90%; for 24 hr LD50 ± 95% confidence intervals: kill 50%; for 24 hr LD90 ± 95% confidence intervals: kill 90%
Method: as §1, §2, §3, §5

[5] = H. contortus infective larvae, 48 hr, eryngial vs ivermectin
[6] = H. contortus infective larvae, listed as eryngial
[7] = S. stercoralis infective larvae
[8] = S. stercoralis infective larvae, listed as eryngial
[9] = S. stercoralis, eryngial vs ivermectin
[10] = A. caninum infective larvae, 24 hr in vitro
[11] = A. caninum infective larvae, 24 hr in vitro, listed as eryngial

## CCCCCCCCC/C=C/C=O [Eryngial, trans-2-dodecenal]
[1]; 24 hr ID50, H. contortus relative to P. trichosuri
  increase in the dose required to immobilize 50%: 10.2 fold
[1]; [5]
  times more effective than ivermectin at eliciting 90% mortality: 2.9 times
  times more potent at killing 50% than ivermectin: 3.7 times
[1]; H. contortus infective larvae
  24 hr ID50 ± 95% confidence intervals: 0.132 (0.078-0.186) mg/ml
  48 hr ID50 ± 95% confidence intervals: 0.313 (0.143-0.453) mg/ml
  24 hr ID90 ± 95% confidence intervals: 0.782 (0.641-0.998) mg/ml
  48 hr ID90 ± 95% confidence intervals: 0.761 (0.530-1.488) mg/ml
  24 hr LD50 ± 95% confidence intervals: 1.793 (1.516-2.558) mg/ml
  48 hr LD50 ± 95% confidence intervals: 1.361 (1.284-1.449) mg/ml
  24 hr LD90 ± 95% confidence intervals: 2.765 (2.010-5.915) mg/ml
  48 hr LD90 ± 95% confidence intervals: 2.360 (2.109-2.768) mg/ml
[1]; [6]
  24 hr ID50 ± 95% confidence intervals: 0.132 mg/mL
  48 hr ID50 ± 95% confidence intervals: 0.313 mg/mL
  24 hr ID90 ± 95% confidence intervals: 0.782 mg/mL
  48 hr ID90 ± 95% confidence intervals: 0.761 mg/mL
  24 hr LD50 ± 95% confidence intervals: 1.793 mg/mL
  48 hr LD50 ± 95% confidence intervals: 1.361 mg/mL
  24 hr LD90 ± 95% confidence intervals: 2.765 mg/mL
  48 hr LD90 ± 95% confidence intervals: 2.360 mg/mL
[2]; 24 hr ID50, S. stercoralis compared with A. caninum
  decrease in the 50% immobilization dose: 9.4 fold
[2]; 24 hr ID50, S. stercoralis compared with H. contortus
  decrease in the 50% immobilization dose: 2.3 fold
[2]; 24 hr ID50, S. stercoralis relative to P. trichosuri
  less sensitive to eryngial than P. trichosuri: 4.5 fold
[2]; 24 hr ID90, S. stercoralis over A. caninum
  increased sensitivity to eryngial (90% immobilization): 10.7 fold
[2]; 24 hr LD50, S. stercoralis than A. caninum
  increase in sensitivity to eryngial (50% mortality doses): 7.2 fold
[2]; 24 hr LD50, S. stercoralis than H. contortus
  increase in sensitivity to eryngial (50% mortality doses): 21.1 fold
[2]; 24 hr LD90, S. stercoralis over A. caninum
  increased sensitivity to eryngial (90% mortality doses): 8.2 fold
[2]; 24 hr LD90, S. stercoralis over H. contortus
  increased sensitivity to eryngial (90% mortality doses): 19.3
[2]; S. stercoralis L3 larvae, eryngial vs ivermectin
  times more effective than ivermectin (48 hr ID90): 3.9 times
[2]; S. stercoralis infective larvae, eryngial vs ivermectin
  times more potent than ivermectin (48 hr ID50): 2.5 times
[2]; [7]
  24 hr ID50 ± 95% confidence intervals: 0.058 (0.054-0.061) mg/ml
  48 hr ID50 ± 95% confidence intervals: 0.054 (0.047-0.061) mg/ml
  24 hr ID90 ± 95% confidence intervals: 0.081 (0.076-0.088) mg/ml
  48 hr ID90 ± 95% confidence intervals: 0.077 (0.066-0.101) mg/ml
  24 hr LD50 ± 95% confidence intervals: 0.085 (0.073-0.102) mg/ml
  48 hr LD50 ± 95% confidence intervals: 0.069 (0.058-0.085) mg/ml
  24 hr LD90 ± 95% confidence intervals: 0.143 (0.115-0.245) mg/ml
  48 hr LD90 ± 95% confidence intervals: 0.105 (0.085-0.174) mg/ml
[2]; [8]
  24 hr ID50 ± 95% confidence intervals: 0.058 mg/mL
  48 hr ID50 ± 95% confidence intervals: 0.054 mg/mL
  24 hr ID90 ± 95% confidence intervals: 0.081 mg/mL
  48 hr ID90 ± 95% confidence intervals: 0.077 mg/mL
  24 hr LD50 ± 95% confidence intervals: 0.085 mg/mL
  48 hr LD50 ± 95% confidence intervals: 0.069 mg/mL
  24 hr LD90 ± 95% confidence intervals: 0.143 mg/mL
  48 hr LD90 ± 95% confidence intervals: 0.105 mg/mL
[2]; [9]
  times more effective than ivermectin (48 hr LD50): 4.4 times
  times more potent than ivermectin (48 hr LD90): 9.9 times
[3]; 24 hr ID50, A. caninum relative to P. trichosuri
  increase in the dose required to immobilize 50%: 41.9 fold
[3]; [10]
  24 hr ID50 ± 95% confidence intervals: 0.545 (0.440-0.641) mg/ml
  24 hr ID90 ± 95% confidence intervals: 0.867 (0.717-1.445) mg/ml
[3]; [11]
  24 hr ID50 ± 95% confidence intervals: 0.545 mg/mL
  24 hr ID90 ± 95% confidence intervals: 0.867 mg/mL
[3]; A. caninum infective larvae, kill 50%, 24 hr in vitro
  24 hr LD50 ± 95% confidence intervals: 0.608 (0.429-0.765) mg/ml
[3]; A. caninum infective larvae, kill 90%, 24 hr in vitro
  24 hr LD90 ± 95% confidence intervals: 1.178 (0.913-2.100) mg/ml
[4]; 24 hr ID90, P. trichosuri compared to A. caninum
  increased sensitivity to eryngial (90% immobilization): 9.4 fold
[4]; 24 hr ID90, P. trichosuri over H. contortus
  increased sensitivity to eryngial (90% immobilization): 8.5 fold
[4]; 24 hr LD50, P. trichosuri over A. caninum
  increase in sensitivity to eryngial (50% mortality doses): 5.8 fold
[4]; 24 hr LD50, P. trichosuri over H. contortus
  increase in sensitivity to eryngial (50% mortality doses): 17.1 fold
[4]; 24 hr LD90, P. trichosuri over A. caninum
  increased sensitivity to eryngial (90% mortality doses): 4 fold
[4]; 24 hr LD90, P. trichosuri over H. contortus
  increased sensitivity to eryngial (90% mortality doses): 9.3 fold
[4]
  24 hr ID50 ± 95% confidence intervals: 0.013 (0.007-0.030) mg/ml
  24 hr ID90 ± 95% confidence intervals: 0.092 (0.051-0.201) mg/ml
  24 hr LD50 ± 95% confidence intervals: 0.105 (0.084-0.133) mg/ml
  24 hr LD90 ± 95% confidence intervals: 0.297 (0.214-0.515) mg/ml
[4]; listed as eryngial
  24 hr ID50 ± 95% confidence intervals: 0.013 mg/mL
  24 hr ID90 ± 95% confidence intervals: 0.092 mg/mL
  24 hr LD50 ± 95% confidence intervals: 0.105 mg/mL
  24 hr LD90 ± 95% confidence intervals: 0.297 mg/mL
